Measured values as given in US20250340946A1, “METHOD OF PROGNOSING AND TREATING GLIOMA” (Agency for Science, Technology and Research, priority 2022, published 2025).

Tests used:
[1] = tested on: LOC expression in mIDH1 (IDH1 R132H/WT) LN18 cells; assay: qPCR of LOC expression in mIDH1 cells; type: cell-based, human
Text: FIG. 6: LOC: DHX15 serves as a targetable vulnerability in wtIDH1 high-grade glioma. A) LOC expression in different IDH mutation status across different WHO grade gliomas based on RNA-seq data from CGGA. B) qPCR of LOC expression in wtIDH1 LN18 cells or mIDH1 clones. Those clones were generated by base editing. C) qPCR of LOC expression in wtIDH1 and mIDH1 LN18 cells treated with or without mIDH1 inhibitor AGI-5198. D) qPCR of LOC expression in wtIDH1 and mIDH1 LN18 cells with or without DMNT inhibitor 5-Azac treatment. E) Protein lysates from wtIDH1 and mIDH1 LN18 cells were analyzed for levels of phosphorylated and total p65 and p38 proteins by western blot. F) wtIDH1 and mIDH1 LN18 cells were transfected with empty vector (EV) or expression vectors of LOC or mutant version of LOC (LOC-M2). After 48 hours cells were harvested and endogenous DHX15 or p65 was immunoprecipitated with antibody against DHX15 or p65. IP samples were analyzed by subsequent immunoblot for the indicated proteins at indicated time points. G-H) Cell viability assay of wtIDH1 G) and mIDH1 LN18 cells H) treated with or without DHX inhibitor. I) Fluorescence imaging of wtIDH1 and mIDH1 GBM orthotopic xenograft models with or without DHX inhibitor treatment. J) Quantification of tumor signal intensity obtained from I). […]

GBM cells = assay: Cell viability, RNA helicase inhibitors alone or with TMZ (FIG. 9); type: cell-based; details: for synergy on cell viability: combination therapy with TMZ; for cell viability: single agent

Nc1ncn([C@@H]2O[C@H](CO)[C@@H](O)[C@H]2O)c(=O)n1 [5-AzaC, 5-Azacytidine]
IDH1 mutation induced hypermethylation phenotype (diminished LOC expression) ([1]; DNA methyltransferase inhibitor treatment, FIG. 6D): abrogate this hypermethylation phenotype

COc1ccc([C@@]23Oc4cc(OC)cc(OC)c4[C@]2(O)[C@H](O)[C@H](C(=O)N(C)C)[C@H]3c2ccccc2)cc1 [Rocaglamide]
synergy on cell viability (GBM cells): does not show synergistic inhibition of cell viability
cell viability (GBM cells): inhibition of cell viability

Cc1ccccc1C(C(=O)NC1CCCCC1)N(C(=O)Cn1ccnc1C)c1cccc(F)c1 (stereo not drawn) [selective mutant IDH1^R132H inhibitor]
LOC expression ([1]; IDH1 R132H/WT cells, mIDH1 inhibitor treatment, FIG. 6C): restored the LOC expression

RK-33
synergy on cell viability (GBM cells): does not show synergistic inhibition of cell viability
cell viability (GBM cells): inhibition of cell viability
